# Assay results from patent US6884907B2, “Hydroxamic acids and acyl hydroxamines as naaladase inhibitors” (Guilford Pharmaceuticals Inc., priority 2001, dated 2005).
# Experiments:
# [1] = system: STZ-induced diabetic rats; experiment: Neuropathic pain in STZ model (thermal nociception, Hargreaves apparatus); type: in vivo, Male Sprague-Dawley rats; conditions: 10 mg/kg i.p. daily, treatment started 45 days post-STZ, FIGS. 7A and 7B
# Procedure: Male Sprague-Dawley rats (200-225 g) were rendered diabetic by intravenous administration of streptozotocin (“STZ”, 70 mg/kg in phosphate buffered saline). Diabetic animals were divided into five groups: one group receiving Compound A (10 mg/kg or 1 mg/kg), Compound D (10 mg/kg or 1 mg/kg) or vehicle. Another group of animals (non-STZ treated) served as non-diabetic controls. Drug/vehicle treatment was started in diabetic animals 45 days post-STZ administration. STZ-induced diabetic rats were tested for sensitivity to a heat source as soon as blood glucose levels rose to 320 mg/dl or above (30 days post STZ). The rats were then acclimated to a Hargreaves apparatus and thermal nociception was monitored using an infrared heat source directed into the dorsal surface of the hindpaw, and the time taken for the animal to remove its paw noted to the nearest 0.1 seconds (see Hargreaves et al., supra, for detailed experimental method). The intensity of the beam source was adjusted such that the mean latency for control animals (non-STZ treated) was approximately 10 seconds. Each animal was tested 8 times and the mean difference score (between mean non-diabetic control latency and mean diabetic latency) are graphically presented in FIGS. 7A and 7B.
# [2] = system: BB/W diabetic rats; experiment: Progression of neuropathic pain and nerve conduction deficits in BB/W model; type: in vivo, Male BB/W rats
# From the text: Male BB/W rats (BRI, Mass) spontaneously develop a cell mediated autoimmune destruction of pancreatic B cells, resulting in onset of insulin-dependent (Type I) diabetes (Guberski 1994). […] This renders them valuable for experimental trials of new compounds for future treatments of this major disorder. In the present study, Compound D and Compound A were examined for their ability to alter the progression of diabetic neuropathy. The rats received daily injection of Compound D or Compound A (10 mg/kg i.p.) or vehicle, starting at the onset of diabetes (hyperglycemia) and up to 6 months thereafter. Another group of non-diabetic rats also receiving vehicle were tested. All animals were continuously monitored for body weight, urine volume, blood sugar and glycated haemoglobin. In the first month of the study, all animals were tested for thermal nociception in a Hargreaves apparatus, weekly. After the first month this was done biweekly and then monthly. The testing consists of directing an infrared heat source onto the dorsal surface of the rat hindpaw and noting the time taken for the animal to remove its paw (see Hargreaves et al., supra, for a description of the experimental method). Each animal was tested 8 times and the mean withdrawal latency noted.
# Nerve conduction velocity was also measured every two weeks through the first eight weeks of treatment and every month thereafter through to the six months of treatment (see De Koning et al., Peptides, Vol. 8, No. 3, pp. 415-22 (1987) for a description of the experimental method). […] This was apparent starting at 8 weeks of treatment and persisted to a similar degree through to the six month termination point of the study.
# [3] = system: STZ-diabetic animals; experiment: Diabetic neuropathy in STZ model (nerve conduction velocity); type: in vivo, rats; conditions: 10 mg/kg daily
# Procedure: Motor and sensory nerve conduction velocity was also measured in STZ-diabetic animals after 4, 8 and 12 weeks of treatment (see De Koning et al., supra, for a description of the experimental method). Briefly, stimulating needle electrodes were inserted close to the sciatic and tibial nerves with recording electrodes being placed subcutaneously over the distal foot muscles, in anesthetized rats.
# [4] = system: transgenic G1H mice; experiment: Onset of ALS in SOD transgenic mice model of FALS; type: in vivo
# Procedure: The effect of NAALADase inhibitors on the onset of ALS was tested using the superoxide dismutase (“SOD”) transgenic mice model of familial Amyotrophic Lateral Sclerosis (“FALS”), which is detailed in Gurney, M., Annals of Neurology (1996) 39:147-157, and otherwise well known in the art. One month old transgenic G1H mice were treated with daily intraperitoneal injections of a vehicle (50 mM HEPES-buffered saline) or a NAALADase inhibitor (50 mg/kg of Compound A). Clinical symptoms of the mice were monitored daily. The onset of clinical disease was scored by examining each mouse for its shaking of limbs when suspended in the air by its tail, cross spread of spinal reflexes, hindlimb paralysis, body weight and wheel running activity.
# [5] = system: rats with transected optic nerve; experiment: Optic nerve transection (optic nerve fiber counting); type: in vivo, Brown Norway rats (Rattus norvegicus); conditions: 2 weeks after transection
# Procedure: All experiments complied with the Association for Research in Vision and Ophthalmology Statement for the Use of Animals in Ophthalmic and Vision Research. 82 male Brown Norway rats (Rattus norvegicus), each weighing approximately 250 gm, were treated using procedures approved by the Animal Care Committee of the Johns Hopkins University School of Medicine. The rats were housed with a 12 hour light/12 hour dark cycle and fed ad libitum.
# OPTIC NERVE TRANSECTION: The optic nerve was transected unilaterally in 26 rats under intraperitoneal pentobarbital anesthesia. The conjunctiva was opened with scissors and the optic nerve exposed by traction on extraocular muscles. […]
# The area of the optic nerve cross-section was measured by outlining its outer border at 10× magnification on an image analysis system (Universal Imaging Corp., Westchester, Pa.) with Synsys digital camera and Metamorph software. Three area measurements were taken and the mean value was determined. […] These were edited to eliminate non-neural objects and the size of each axon internal to the myelin sheath (its minimum diameter) and the density of axons/square mm were calculated for each image and nerve. […] The number of axons counted among the 10 images was an approximately 20% sample of the 80-90,000 axons in normal rat nerves. […]
# [6] = system: Transgenic HD mice of the N171-82Q strain; experiment: Transgenic mouse model of Huntington's disease: behavioral testing (rotarod, locomotion); type: in vivo
# Procedure: Transgenic HD mice of the […]-[…] strain and non-transgenic littermates were treated with NAALADase inhibitor Compound B (30 mg/kg) or a vehicle from 10 weeks of age. The mice were placed on a rotating rod (“rotarod”). The length of time at which the mouse fell off the rotarod was recorded as a measure of motor coordination. […] The treatment with Compound B had no effect on the rotarod performance of normal non-HD mice. The total distance traveled by the mice was also recorded as a measure of overall locomotion.
# [7] = system: transgenic HD mice (N171-82Q); experiment: Transgenic mouse model of Huntington's disease: survival; type: in vivo
# Procedure: The effects of Compound B and vehicle on the survival of transgenic HD mice (N171-82Q) were evaluated. Thirteen mice (six male and seven female) were assigned to the Compound B treatment group, and fourteen mice (six male and eight female) were assigned to the vehicle treatment group. Treatment was continued until all the mice died.
# [8] = system: TGF-β; experiment: Effect of NAALADase inhibition on TGF-β in in vitro ischemia model; type: cell-based; conditions: ischemic cell cultures
# Procedure: A NAALADase inhibitor, Compound C, was added to ischemia cell cultures to determine its effect on TGF-β levels during stroke.
# TGF-β neutralizing antibodies were then added to the ischemic cell cultures.
# [9] = system: TGF-β; experiment: Effect of NAALADase inhibition on TGF-β in in vivo ischemia model (MCAO); conditions: MCAO rats
# From the text: The effect of TGF-β neutralizing antibodies on the neuroprotective effect of Compound C was also studied in rats following MCAO.
# [10] = system: rats with sciatic nerve ligation; experiment: Neuropathic pain in chronic constriction injury (CCI) model; type: in vivo; conditions: 50 mg/kg i.p. daily starting 10 days post surgery, versus vehicle, FIG. 8
# Procedure: Sciatic nerve ligation, consisting of 4 ligatures tied loosely around the sciatic nerve at 1 mm intervals proximal to the nerve trifurcation, was performed on rats. […] The rats were habituated to a Hargreaves apparatus. An infrared heat source was directed onto the […] surface of each rat's hindpaws and the time taken for the rat to withdraw its paws was noted. The difference in scores between the latency of the response for the paw on the operated side versus the paw on the unoperated control side was determined. The rats received either Compound C (50 mg/kg i.p. daily) or a vehicle starting 10 days post surgery. […] Normal (unoperated) rats had approximately equal latencies for both paws. This effect was significant starting at 11 days of drug treatment and persisted through to the end of the study (for 21 days of daily dosing).
smiles,measurement,setting,value
"O=C(O)CCC(CP(=O)(O)Cc1c(F)c(F)c(F)c(F)c1F)C(=O)O (stereo not shown) [Compound A, 2-[[(2,3,4,5,6-pentafluorobenzyl)hydroxyphosphinyl]methyl]pentanedioic acid]",hyperalgesic response (withdrawal latency difference score),[1],completely reversed
same,nerve conduction velocity,"[2]; 10 mg/kg daily, versus diabetic vehicle controls, from 8 weeks to six months, FIG. 12",significantly less severe nerve conduction deficits
same,withdrawal latency,"[2]; 10 mg/kg i.p. daily, versus diabetic vehicle-treated rats, from 4 weeks through six months of treatment, FIG. 11",longer withdrawal latencies
same,sensory nerve conduction velocity,"[3]; after 8 weeks, FIG. 9B",significant improvement
same,motor nerve conduction velocity,"[3]; after 12 weeks, FIG. 9A",significant improvement
same,Difference in disease onset (treated versus vehicle),"[4]; Study 1, 50 mg/kg daily i.p.",32
same,Disease Onset For Compound A Treated Mice,"[4]; Study 1, 50 mg/kg daily i.p., vehicle 189",221 days
same,Difference in disease onset (treated versus vehicle),"[4]; Study 2, 50 mg/kg daily i.p.",25
same,Disease Onset For Compound A Treated Mice,"[4]; Study 2, 50 mg/kg daily i.p., vehicle 141",166 days
same,remaining axons relative to saline-treated rats,[5],3 times
"O=C(O)CCC(CCCS)C(=O)O (stereo not shown) [Compound B, 2-(3-sulfanylpropyl)pentanedioic acid]",remaining axons relative to saline-treated rats,[5],twice
same,rotarod performance,"[6]; normal non-HD mice, 30 mg/kg",no effect
same,rotarod performance (time on rotarod),"[6]; transgenic HD mice, 30 mg/kg from 10 weeks of age, versus vehicle, FIG. 31",stayed longer on the rotarod
same,median survival time,"[7]; all treated transgenic HD mice, vehicle 158.5 days, p-value=0.07, FIG. 33",184 days
same,survival time,"[7]; female transgenic HD mice versus vehicle, p-value=0.03, FIG. 35",significantly prolonged survival time
"O=C(O)CCC(CP(=O)(O)O)C(=O)O (stereo not shown) [Compound C, 2-(phosphonomethyl)pentanedioic acid]",TGF-β1 concentration,[8]; FIG. 1,increased concentrations
same,TGF-β2 concentration,[8]; FIG. 2,increased concentrations
same,neuroprotective effect in presence of TGF-β neutralizing antibodies,[8]; FIG. 3,blocked the neuroprotective effect
same,neuroprotective effect in presence of FGF antibody,[8]; FIG. 4,did not block the neuroprotective effect
same,neuroprotective effect in presence of TGF-β neutralizing antibodies,[9]; FIG. 5,significantly attenuated the neuroprotective effect
same,TGF-β1 levels,"[9]; during occlusion and reperfusion, microdialysis, FIG. 6",significant rise
same,difference scores between the two paws (withdrawal latency),[10],dramatically normalized
